These results are taken from patent publication US9353107B2 (Aurigene Discovery Technologies Limited, priority 2012, dated 2016).

Counter-ions that a name gives are not always drawn.

This assay has as its target T1, recombinant human ALK enzyme (ALK WT) (Homo sapiens, UniProt Q9UM73).
T1 construct: purchased Carna Biosciences 08-518
Briefly: ALK WT cell free enzymatic assay (TR-FRET). It counts as biochemical. The note with it: 1 μM ATP; for IC50: 10 point dose response; for inhibition at 0.1 µM: compound at 100 nM; for inhibition at 0.1 µM / inhibition at 1 µM: 30 min pre-incubation; for inhibition at 1 µM: compound at 1 μM. The method, then:
ALK Wild Type (WT) The ALK WT cell free assay was set up to evaluate the effects of these compounds as inhibitors of ALK enzyme. The enzymatic assay was standardized using recombinant human ALK enzyme (Cat#08-518) from Carna Biosciences using Ultra Light Poly GT (Cat# TRF 0100D) from Perkin Elmer as a substrate. TR-FRET (Time resolved fluorescence resonance energy transfer) detection technology was used for the read out. The final assay conditions were 50 mM HEPES pH 7.1, 10 mM MgCl2, 2 mM MnCl2, 0.01% BSA, 2.5 mM DTT, 0.1 mM Na3 VO4, 40 nM Ultra Light Poly GT, 2.5 ng ALK WT enzyme, 1 μM ATP and 125 nM Lance Eu-W1024 labeled anti phospho tyrosine antibody (Cat# AD0203, Perkin Elmer) in 384 well format. The assay reaction time with the substrate was 30 minutes after which the antibody detection mix is added. The TR-FRET signal (Excitation at 340 nm, Emission at 615 nm and 665 nm) was read with 50 μs delay time on Victor^3 V fluorimeter. The data is calculated using the ratio of reading at 665 nM to 615 nM. The final concentration of DMSO was 1% in the assay. Compounds were screened at 100 nM and 1 μM concentrations with pre-incubation of the enzymes with compound for 30 minutes. Each individual IC50 was determined using 10 point dose response curve generated by GraphPad Prism software Version 4 (San Diego, Calif., USA) using non linear regression curve fit for sigmoidal dose response (variable slope). Percentage inhibition at concentrations of 100 nM and 1.0 μM are given in table along with the IC50 (nM) details for selected examples.
On the technique in general: Time-resolved FRET reads energy transfer from a long-lived donor to a nearby acceptor.

T1 sequence (Q9UM73 1058-1620 limits assumed): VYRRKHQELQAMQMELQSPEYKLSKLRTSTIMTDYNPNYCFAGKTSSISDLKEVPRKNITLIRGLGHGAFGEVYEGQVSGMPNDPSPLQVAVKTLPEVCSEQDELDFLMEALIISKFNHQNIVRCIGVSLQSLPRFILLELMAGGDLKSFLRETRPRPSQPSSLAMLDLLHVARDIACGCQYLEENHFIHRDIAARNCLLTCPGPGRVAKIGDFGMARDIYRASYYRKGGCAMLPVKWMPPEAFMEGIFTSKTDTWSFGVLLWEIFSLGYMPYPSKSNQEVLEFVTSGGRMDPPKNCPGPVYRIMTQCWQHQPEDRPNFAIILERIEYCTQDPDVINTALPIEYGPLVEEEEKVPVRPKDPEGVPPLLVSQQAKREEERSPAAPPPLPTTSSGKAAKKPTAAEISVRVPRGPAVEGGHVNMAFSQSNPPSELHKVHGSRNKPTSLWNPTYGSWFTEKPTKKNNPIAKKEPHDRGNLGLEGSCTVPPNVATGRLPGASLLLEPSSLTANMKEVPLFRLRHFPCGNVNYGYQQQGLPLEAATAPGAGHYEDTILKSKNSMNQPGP

Broadly, the IC50 is the point on the concentration scale where inhibition reaches its midpoint. As a reminder, the inhibition is the relative decrease from the control value, in per cent. Consider `N#CCN1CCN(c2ccc(-c3cnc4[nH]cc(-c5cnn(Cc6cccc(F)c6)c5)c4c3)cn2)CC1` [Example 150, 2-(4-(5-(3-(1-(3-fluorobenzyl)-1H-pyrazol-4-yl)-1H-pyrrolo[2,3-b]pyridin-5-yl)pyridin-2-yl)piperazin-1-yl)acetonitrile], for which the IC50 was below 50 nM, the inhibition at 0.1 µM stood at 92% and the inhibition at 1 µM was determined as 100%.
Turning to `N#CCCN1CCN(c2cccc(-c3cnc4[nH]cc(-c5cnn(Cc6cccc(F)c6)c5)c4c3)c2)CC1` [Example 34, 3-(4-(3-(3-(1-(3-fluorobenzyl)-1H-pyrazol-4-yl)-1H-pyrrolo[2,3-b]pyridin-5-yl)phenyl)piperazin-1-yl) propanenitrile], the half-inhibitory concentration (IC50) is below 50 nM, the inhibition at 0.1 µM was determined as 91% and the inhibition at 1 µM was found to be 99%.
Consider `CS(=O)(=O)Nc1cc(-c2cnc3[nH]cc(-c4cnn(Cc5cccc(F)c5)c4)c3c2)ccc1F` [Example 78, N-(2-fluoro-5-(3-(1-(3-fluorobenzyl)-1H-pyrazol-4-yl)-1H-pyrrolo[2,3-b]pyridin-5-yl)phenyl) methanesulfonamide], for which the IC50 is below 50 nM, the inhibition at 0.1 µM was found to be 100% and the inhibition at 1 µM was 101%.
For the compound `Cc1cccc(Cn2nc(C)c(-c3c[nH]c4ncc(-c5ccc(N6CCNCC6)cc5)cc34)c2C)c1` [Example 51, 3-(3,5-dimethyl-1-(3-methylbenzyl)-1H-pyrazol-4-yl)-5-(4-(piperazin-1-yl)phenyl)-1H-pyrrolo[2,3-b]pyridine hydrochloride], the 50% inhibitory concentration (IC50) is below 50 nM, the inhibition at 0.1 µM worked out at 84% and the inhibition at 1 µM was 100%.
Taken in the same sequence, the figures for `Fc1cccc(Cn2cc(-c3c[nH]c4ncc(-c5ccc(C6CCNCC6)c(F)c5)cc34)cn2)c1` [Example 84, 5-(3-fluoro-4-(piperidin-4-yl)phenyl)-3-(1-(3-fluorobenzyl)-1H-pyrazol-4-yl)-1H-pyrrolo[2,3-b]pyridine] were below 50 nM, 98% and 100%.
For `C[C@H](O)CN1CCC(c2ccc(-c3cnc4[nH]cc(-c5cnn(Cc6cccc(F)c6)c5)c4c3)cn2)CC1` [Example 102A, (S)-1-(4-(5-(3-(1-(3-fluorobenzyl)-1H-pyrazol-4-yl)-1H-pyrrolo[2,3-b]pyridin-5-yl)pyridin-2-yl)piperidin-1-yl)propan-2-ol], in that order: below 50 nM, 91% and 94%.
As for `NC(=O)CN1CCC(Cc2cccc(-c3cnc4[nH]cc(-c5cnn(Cc6cccc(F)c6)c5)c4c3)c2)CC1` [Example 184, 2-(4-(3-(3-(1-(3-fluorobenzyl)-1H-pyrazol-4-yl)-1H-pyrrolo[2,3-b]pyridin-5-yl)benzyl)piperidin-1-yl)acetamide], the 50% inhibitory concentration (IC50) was below 50 nM, the inhibition at 0.1 µM turned out to be 92% and the inhibition at 1 µM stood at 100%.
In the case of `Cc1nn(Cc2cccc(F)c2)c(C)c1-c1c[nH]c2ncc(-c3ccc(N4CCN(CCO)CC4)cc3)cc12` [Example 41, 2-(4-(4-(3-(1-(3-fluorobenzyl)-3,5-dimethyl-1H-pyrazol-4-yl)-1H-pyrrolo[2,3-b]pyridin-5-yl)phenyl)piperazin-1-yl)ethanol], the IC50 was below 50 nM, the inhibition at 0.1 µM was found to be 90% and the inhibition at 1 µM is 100%.
Taken in the same sequence, the figures for `CN1CCN(c2cccc(-c3cnc4[nH]cc(-c5cnn(Cc6cccc(F)c6)c5)c4c3)c2)CC1` [Example 36, 3-(1-(3-fluorobenzyl)-1H-pyrazol-4-yl)-5-(3-(4-methylpiperazin-1-yl)phenyl)-1H-pyrrolo[2,3-b]pyridine] were below 50 nM, 96% and 99%.
Taken in the same sequence, the figures for `Cc1cccc(Cn2cc(-c3c[nH]c4ncc(-c5ccc(C6CCNCC6)cc5)cc34)cn2)c1` [Example 85, 3-(1-(3-methylbenzyl)-1H-pyrazol-4-yl)-5-(4-(piperidin-4-yl)phenyl)-1H-pyrrolo[2,3-b]pyridine] were below 50 nM, 95% and 100%.
Taken in the same sequence, the figures for `Cc1nn(Cc2cccc(F)c2)c(C)c1-c1c[nH]c2ncc(-c3ccc(N4CCNCC4)cc3)cc12` [Example 40, 3-(1-(3-fluorobenzyl)-3,5-dimethyl-1H-pyrazol-4-yl)-5-(4-(piperazin-1-yl)phenyl)-1H-pyrrolo[2,3-b]pyridine hydrochloride] were below 50 nM, 94% and 100%.
As for `Fc1cccc(Cn2cc(-c3c[nH]c4ncc(-c5ccc(N6CCNCC6)cc5)cc34)cn2)c1` [Example 39, 3-(1-(3-fluorobenzyl)-1H-pyrazol-4-yl)-5-(4-(piperazin-1-yl)phenyl)-1H-pyrrolo[2,3-b]pyridine hydrochloride], the half-inhibitory concentration (IC50) is below 50 nM, the inhibition at 0.1 µM amounted to 92% and the inhibition at 1 µM came to 99%.
In the case of `Cc1nn(Cc2cccc(F)c2)c(C)c1-c1c[nH]c2ncc(-c3ccc(OCCCN(C)C)c(NS(C)(=O)=O)c3)cc12` [Example 26, N-(2-(3-(dimethylamino)propoxy)-5-(3-(1-(3-fluorobenzyl)-3,5-dimethyl-1H-pyrazol-4-yl)-1H-pyrrolo[2,3-b]pyridin-5-yl)phenyl)methanesulfonamide], the 50% inhibitory concentration (IC50) is below 50 nM, the inhibition at 0.1 µM amounted to 96% and the inhibition at 1 µM is 100%.
As for `COc1cc(N2CCNCC2)ccc1-c1cnc2[nH]cc(-c3c(C)nn(Cc4cccc(F)c4)c3C)c2c1` [Example 61, 3-(1-(3-fluorobenzyl)-3,5-dimethyl-1H-pyrazol-4-yl)-5-(2-methoxy-4-(piperazin-1-yl)phenyl)-1H-pyrrolo[2,3-b]pyridine hydrochloride], the half-maximal inhibitory concentration (IC50) is below 50 nM, the inhibition at 0.1 µM was 73% and the inhibition at 1 µM turned out to be 96%.
As for `Fc1cc(F)cc(Cn2cc(-c3c[nH]c4ncc(-c5ccc(N6CCNCC6)nc5)cc34)cn2)c1` [Example 134, 3-(1-(3,5-difluorobenzyl)-1H-pyrazol-4-yl)-5-(6-(piperazin-1-yl)pyridin-3-yl)-1H-pyrrolo[2,3-b]pyridine], the IC50 was below 50 nM, the inhibition at 0.1 µM stood at 97% and the inhibition at 1 µM came to 100%.
Taken in the same sequence, the figures for `Cc1c(-c2c[nH]c3ncc(-c4ccc(C5CCNCC5)cc4)cc23)cnn1Cc1cccc(F)c1` [Example 91, 3-(1-(3-fluorobenzyl)-5-methyl-1H-pyrazol-4-yl)-5-(4-(piperidin-4-yl)phenyl)-1H-pyrrolo[2,3-b]pyridine] were below 50 nM, 99% and 100%.
Regarding `Cc1nn(Cc2cccc(F)c2)c(C)c1-c1c[nH]c2ncc(-c3cccc(N4CCNCC4)c3)cc12` [Example 38, 3-(1-(3-fluorobenzyl)-3,5-dimethyl-1H-pyrazol-4-yl)-5-(3-(piperazin-1-yl)phenyl)-1H-pyrrolo[2,3-b]pyridine], the IC50 was below 50 nM, the inhibition at 0.1 µM worked out at 87% and the inhibition at 1 µM worked out at 99%.
As for `CS(=O)(=O)Nc1cccc(-c2cnc3[nH]cc(-c4cnn(Cc5ccccc5)c4)c3c2)c1` [Example 12, N-(3-(3-(1-benzyl-1H-pyrazol-4-yl)-1H-pyrrolo[2,3-b]pyridin-5-yl)phenyl) methanesulfonamide], the concentration for half-maximal inhibition (IC50) was above 250 nM and the inhibition at 1 µM came to 87%.
`COc1ccc(-c2cnc3[nH]cc(-c4c(C)nn(Cc5cc(F)ccc5F)c4C)c3c2)cc1NS(C)(=O)=O` [Example 22, N-(5-(3-(1-(2,5-difluorobenzyl)-3,5-dimethyl-1H-pyrazol-4-yl)-1H-pyrrolo[2,3-b]pyridin-5-yl)-2-methoxyphenyl)methanesulfonamide]: the half-maximal inhibitory concentration (IC50) was below 50 nM, the inhibition at 0.1 µM was determined as 62% and the inhibition at 1 µM was determined as 87%.
Regarding `CNS(=O)(=O)c1cc(-c2cnc3[nH]cc(-c4c(C)nn(Cc5cc(F)ccc5F)c4C)c3c2)ccc1OC` [Example 20, 5-(3-(1-(2,5-difluorobenzyl)-3,5-dimethyl-1H-pyrazol-4-yl)-1H-pyrrolo[2,3-b]pyridin-5-yl)-2-methoxy-N-methylbenzenesulfonamide], the half-inhibitory concentration (IC50) is above 250 nM, the inhibition at 0.1 µM stood at 17% and the inhibition at 1 µM was found to be 75%.
For `Cc1nn(Cc2cccc(F)c2)c(C)c1-c1c[nH]c2ncc(-c3ccc(OCCN(C)C)c(NS(C)(=O)=O)c3)cc12` [Example 23, N-(2-(2-(dimethylamino)ethoxy)-5-(3-(1-(3-fluorobenzyl)-3,5-dimethyl-1H-pyrazol-4-yl)-1H-pyrrolo[2,3-b]pyridin-5-yl)phenyl)methanesulfonamide], in that order: 50 to 250 nM, 73% and 99%.
